According to patent US9873709B2 (priority 2013, dated 2018):
Like-named read-outs stand apart in the source and are kept apart here.

Experiments:
[1] = target: isolated recombinant JAK2 kinase domain (Homo sapiens (Human), UniProt O60674); conditions: read-out: JAK2 Ki
[2] = tested on: JAK1-dependent STAT6 phosphorylation downstream of IL-13 stimulation in BEAS-2B human bronchial epithelial cells; assay: cells; conditions: read-out: IL13-pSTAT6 BEASB2B IC50
[3] = tested on: JAK1-dependent STAT6 phosphorylation downstream of IL-13 stimulation in TF-1 human erythroleukemia cells; assay: cells; conditions: TF-1, read-out: IL-13-pSTAT6 IC50
[4] = isolated recombinant JAK2 kinase domain, 25 μM ATP

Chain of isolated recombinant JAK2 kinase domain (O60674 849-1124): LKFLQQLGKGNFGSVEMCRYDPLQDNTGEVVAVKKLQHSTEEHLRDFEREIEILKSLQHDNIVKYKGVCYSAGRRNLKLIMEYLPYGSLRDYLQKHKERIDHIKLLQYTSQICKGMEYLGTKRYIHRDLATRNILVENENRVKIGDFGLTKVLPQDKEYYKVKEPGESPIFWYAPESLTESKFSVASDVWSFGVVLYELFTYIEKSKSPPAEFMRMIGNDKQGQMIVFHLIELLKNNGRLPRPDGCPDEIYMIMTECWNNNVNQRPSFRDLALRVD

SMILES	Ki [1, 4] [nM]	IC50 [3] [nM]	IC50 [2] [nM]	Ki [1] [nM]
CN1CCC(N(C)C(=O)c2ccc(Nc3nc4c(N5CCC(O)(c6ccccc6)CC5)cccn4n3)cc2)CC1 [Example 1-43, 4-[[8-(4-hydroxy-4-phenyl-1-piperidyl)-[1,2,4]triazolo[1,5-a]pyridin-2-yl]amino]-N-methyl-N-(1-methyl-4-piperidyl)benzamide]	7.84	–	968	–
CO/N=C/C1(c2ccc(Cl)cc2)CCN(c2cccn3nc(Nc4ccc(C(=O)N(C)C5CCN(C)CC5)cc4)nc23)CC1 [Example 1-250]	1.29	–	732	–
CSc1ccc(C2(CO)CCN(c3cccn4nc(Nc5ccc(C(=O)N(C)C6CCN(C)CC6)cc5)nc34)CC2)cc1 [Example 1-251, 4-([8-[4-(hydroxymethyl)-4-[4-(methylsulfanyl)phenyl]piperidin-1-yl]-[1,2,4]triazolo[1,5-a]pyridin-2-yl]amino)-N-methyl-N-(1-methylpiperidin-4-yl)benzamide]	–	–	56.6	0.41
CC(O)C1(c2ccc(Cl)cc2)CCN(c2cccn3nc(Nc4ccc(C(=O)N(C)C5CCN(C)CC5)cc4)nc23)CC1 (stereo not drawn) [Example 1-252, 4-[[8-[4-(4-chlorophenyl)-4-(1-hydroxyethyl)-1-piperidyl]-[1,2,4]triazolo[1,5-a]pyridin-2-yl]amino]-N-methyl-N-(1-methyl-4-piperidyl)benzamide]	0.5	–	90.2	–
CN1CCC(N(C)C(=O)c2ccc(Nc3nc4c(N5CCC(CN)(c6ccc(Cl)cc6)CC5)cccn4n3)cc2)CC1 [Example 1-265, 4-([8-[4-(aminomethyl)-4-(4-chlorophenyl)piperidin-1-yl]-[1,2,4]triazolo[1,5-a]-pyridin-2-yl]amino)-N-methyl-N-(1-methylpiperidin-4-yl)benzamide]	0.57	–	94.8	–
CC1CCCN(CCNC(=O)c2ccc(Nc3nc4c(C5=CCN(C(=O)CCC(F)(F)F)CC5)cccn4n3)cc2)C1 (stereo not drawn) [Example 2-101, N-[2-(3-methyl-1-piperidyl)ethyl]-4-[[8-[1-(4,4,4-trifluorobutanoyl)-3,6-dihydro-2H-pyridin-4-yl]-[1,2,4]triazolo[1,5-a]pyridin-2-yl]amino]benzamide]	–	3.5	31.8	–
Cc1ccc(CNC(=O)c2ccc(Nc3nc4c(C5=CCN(C(=O)CCC(F)(F)F)CC5)cccn4n3)cc2)cn1 [Example 2-148, N-[(6-methyl-3-pyridyl)methyl]-4-[[8-[1-(4,4,4-trifluorobutanoyl)-3,6-dihydro-2H-pyridin-4-yl]-[1,2,4]triazolo[1,5-a]pyridin-2-yl]amino]benzamide]	–	3.2	15	–
O=C(CCC(F)(F)F)N1CC=C(c2cccn3nc(Nc4ccc(C(=O)N5CCOC(c6ccccn6)C5)cc4)nc23)CC1 (stereo not drawn) [Example 2-154, 4,4,4-trifluoro-1-[4-[2-[4-[2-(2-pyridyl)morpholine-4-carbonyl]anilino]-[1,2,4]triazolo[1,5-a]pyridin-8-yl]-3,6-dihydro-2H-pyridin-1-yl]butan-1-one]	–	4.5	80.6	–
O=C(CCC(F)(F)F)N1CC=C(c2cccn3nc(Nc4ccc(C(=O)N5CCC(N6CCOCC6)CC5)cc4)nc23)CC1 [Example 2-210, 4,4,4-trifluoro-1-[4-[2-[4-(4-morpholinopiperidine-1-carbonyl)anilino]-[1,2,4]triazolo[1,5-a]pyridin-8-yl]-3,6-dihydro-2H-pyridin-1-yl]butan-1-one]	–	6.9	45.6	–
CC(C)(CNC(=O)c1ccc(Nc2nc3c(C4=CCN(C(=O)CCC(F)(F)F)CC4)cccn3n2)cc1)N1CCOCC1 [Example 2-213, N-(2-methyl-2-morpholino-propyl)-4-[[8-[1-(4,4,4-trifluorobutanoyl)-3,6-dihydro-2H-pyridin-4-yl]-[1,2,4]triazolo[1,5-a]pyridin-2-yl]amino]benzamide]	–	5.6	20.6	–
CCN(Cc1ccncc1)C(=O)c1ccc(Nc2nc3c(C4=CCN(C(=O)CCC(F)(F)F)CC4)cccn3n2)cc1 [Example 2-219, N-ethyl-N-(4-pyridylmethyl)-4-[[8-[1-(4,4,4-trifluorobutanoyl)-3,6-dihydro-2H-pyridin-4-yl]-[1,2,4]triazolo[1,5-a]pyridin-2-yl]amino]benzamide]	–	3.3	37.2	–
CC1CN(CCNC(=O)c2ccc(Nc3nc4c(C5=CCN(C(=O)CCC(F)(F)F)CC5)cccn4n3)cc2)CC(C)O1 (stereo not drawn) [Example 2-268, N-[2-(2,6-dimethylmorpholin-4-yl)ethyl]-4-[[8-[1-(4,4,4-trifluorobutanoyl)-3,6-dihydro-2H-pyridin-4-yl]-[1,2,4]triazolo[1,5-a]pyridin-2-yl]amino]benzamide]	–	3	26.6	–

The next lines start with results.

Ki [1, 4] [nM]	IC50 [3] [nM]	SMILES	IC50 [2] [nM]	Ki [1] [nM]
–	5.3	O=C(NCCCN1CCOCC1)c1ccc(Nc2nc3c(C4=CCN(C(=O)CCC(F)(F)F)CC4)cccn3n2)cc1 [Example 2-271, N-(3-morpholinopropyl)-4-[[8-[1-(4,4,4-trifluorobutanoyl)-3,6-dihydro-2H-pyridin-4-yl]-[1,2,4]triazolo[1,5-a]pyridin-2-yl]amino]benzamide]	15.9	–
–	3.9	O=C(CCC(F)(F)F)N1CC=C(c2cccn3nc(Nc4ccc(C(=O)N(Cc5ccccn5)C5CC5)cc4)nc23)CC1 [Example 2-272, N-cyclopropyl-N-(2-pyridylmethyl)-4-[[8-[1-(4,4,4-trifluorobutanoyl)-3,6-dihydro-2H-pyridin-4-yl]-[1,2,4]triazolo[1,5-a]pyridin-2-yl]amino]benzamide]	106	–
–	12.7	CN1CCC(N(C)C(=O)c2ccc(Nc3nc4c(C5=CCN(C(=O)CCC(F)(F)F)CC5)cccn4n3)cc2)CC1 [Example 2-288, N-methyl-N-(1-methyl-4-piperidyl)-4-[[8-[1-(4,4,4-trifluorobutanoyl)-3,6-dihydro-2H-pyridin-4-yl]-[1,2,4]triazolo[1,5-a]pyridin-2-yl]amino]benzamide]	77.7	–
–	4.3	CC(CN1CCCCC1)NC(=O)c1ccc(Nc2nc3c(C4=CCN(C(=O)CCC(F)(F)F)CC4)cccn3n2)cc1 (stereo not drawn) [Example 2-334, N-[1-methyl-2-(1-piperidyl)ethyl]-4-[[8-[1-(4,4,4-trifluorobutanoyl)-3,6-dihydro-2H-pyridin-4-yl]-[1,2,4]triazolo[1,5-a]pyridin-2-yl]amino]benzamide]	30.7	–
–	3.3	O=C(CCC(F)(F)F)N1CC=C(c2cccn3nc(Nc4ccc(C(=O)N5CCC(c6ccncc6)C5)cc4)nc23)CC1 (stereo not drawn) [Example 2-338, 4,4,4-trifluoro-1-[4-[2-[4-[3-(4-pyridyl)pyrrolidine-1-carbonyl]anilino]-[1,2,4]triazolo[1,5-a]pyridin-8-yl]-3,6-dihydro-2H-pyridin-1-yl]butan-1-one]	23.4	–
–	4.6	O=C(NCCc1ccncc1)c1ccc(Nc2nc3c(C4=CCN(C(=O)CCC(F)(F)F)CC4)cccn3n2)cc1 [Example 2-343, N-[2-(4-pyridyl)ethyl]-4-[[8-[1-(4,4,4-trifluorobutanoyl)-3,6-dihydro-2H-pyridin-4-yl]-[1,2,4]triazolo[1,5-a]pyridin-2-yl]amino]benzamide]	38.3	–
